Reference: EP3892265A1, “COMPOSITION FOR SUPPRESSING BLOOD PRESSURE ELEVATION AND METHOD FOR SUPPRESSING BLOOD PRESSURE ELEVATION” (Suntory Holdings Limited, priority 2018, dated 2020)

Tests used:
[1] = biological target: T1, angiotensin-converting enzyme (ACE) (Homo sapiens, UniProt P12821); experiment: ACE inhibitory activity measured with ACE Kit-WST (Dojindo Laboratories); type: biochemical; details: n = 4
T1 construct: purchased Dojindo Laboratories
Protocol: The angiotensin-converting enzyme (ACE) inhibitory effect of xanthohumol was evaluated by the following procedure.
Specifically, the ACE inhibitory activity was measured for the case where xanthohumol (produced by Gifu Shellac Manufacturing Co., Ltd.) was added as a test substance (n = 4 per level), using an ACE Kit-WST (Dojindo Laboratories) according to the instructions accompanying the kit.
A level with addition of distilled water instead of xanthohumol was set as a control group.
A level with no addition of xanthohumol which was measured in an ACE (enzyme)-free reaction system was set as an enzyme-free group.
The ACE inhibitory activity (%) of the test substance was calculated using the following formula 1. Significant difference was tested between the groups (control group vs. test substance-added group) by Student's t-test (significant level: p < 0.05). ACE inhibitory activity(%); = 100 × ((absorbanceat450nmofcontrolgroup)−; (absorbance at 450 nm in test substance−added; group))/((absorbanceat450nmofcontrolgroup)−; (absorbanceat450nmofenzyme-freegroup)) [formula]

[2] = tested on: human umbilical vein endothelial cells (HUVECs, Lonza); experiment: Promotion of nitric oxide (NO) production from vascular endothelial cells, DAF-2 fluorescence; type: cell-based; details: 24 hours, relative to control group; for Relative amount of NO released (%) Average: n = 5
Protocol: The effect of xanthohumol (produced by Gifu Shellac Manufacturing Co., Ltd.) in promoting nitric oxide (NO) production from vascular endothelial cells was evaluated by the following procedure.
Specifically, human umbilical vein endothelial cells (HUVECs, Lonza) were treated with xanthohumol for 24 hours, and the amount of nitric oxide (NO) production was measured (n = 5).
HUVECs in a medium (EGM-2, Lonza) were seeded onto a 96-well plate at 10000 cells/0.1 mL/well, and cultured in a CO2 incubator. On the following day, the medium of a xanthohumol-added group was replaced by a medium to which xanthohumol was added; the control group was transferred to a control medium; and the positive control group was transferred to a medium containing positive control (Lovastatin, 10 µM) . Then, these groups were cultured in a CO2 incubator for additional 24 hours.
The medium to which xanthohumol was added was prepared by dissolving xanthohumol in dimethyl sulfoxide (DMSO) and adding the solution to a medium such that the final concentration of xanthohumol was 1 µg/mL, 3 µg/mL, or 10 µg/mL. The control medium was prepared by adding DMSO to a medium to the same concentration as that in the xanthohumol-added group. The medium containing positive control was prepared by adding a solution of lovastatin in DMSO to a medium such that the final concentration of lovastatin (produced by FUJIFILM Wako Pure Chemical Corporation) was 10 µM.
After culturing for 24 hours, diaminofluorescein-2 diacetate (DAF-2, Goryo Chemical, Inc.) was added to each medium to a final concentration of 10 µM, followed by incubation in a CO2 incubator for two hours. Subsequently, the culture supernatant was transferred to a 96-well plate (black plate), and the fluorescence intensity (ex. 495 nm, em. 515 nm) was measured. The fluorescence intensity relative to the fluorescence intensity of the control group was determined as the relative amount of NO released. Significant difference was tested between the groups (control group vs. xanthohumol-added group) by Student's t-test (significant level: p < 0.05). […]

[3] = Xanthohumol concentration 3 µg/mL
[4] = Xanthohumol concentration 10 µg/mL

T1 sequence (P12821 30-1306, species assumed): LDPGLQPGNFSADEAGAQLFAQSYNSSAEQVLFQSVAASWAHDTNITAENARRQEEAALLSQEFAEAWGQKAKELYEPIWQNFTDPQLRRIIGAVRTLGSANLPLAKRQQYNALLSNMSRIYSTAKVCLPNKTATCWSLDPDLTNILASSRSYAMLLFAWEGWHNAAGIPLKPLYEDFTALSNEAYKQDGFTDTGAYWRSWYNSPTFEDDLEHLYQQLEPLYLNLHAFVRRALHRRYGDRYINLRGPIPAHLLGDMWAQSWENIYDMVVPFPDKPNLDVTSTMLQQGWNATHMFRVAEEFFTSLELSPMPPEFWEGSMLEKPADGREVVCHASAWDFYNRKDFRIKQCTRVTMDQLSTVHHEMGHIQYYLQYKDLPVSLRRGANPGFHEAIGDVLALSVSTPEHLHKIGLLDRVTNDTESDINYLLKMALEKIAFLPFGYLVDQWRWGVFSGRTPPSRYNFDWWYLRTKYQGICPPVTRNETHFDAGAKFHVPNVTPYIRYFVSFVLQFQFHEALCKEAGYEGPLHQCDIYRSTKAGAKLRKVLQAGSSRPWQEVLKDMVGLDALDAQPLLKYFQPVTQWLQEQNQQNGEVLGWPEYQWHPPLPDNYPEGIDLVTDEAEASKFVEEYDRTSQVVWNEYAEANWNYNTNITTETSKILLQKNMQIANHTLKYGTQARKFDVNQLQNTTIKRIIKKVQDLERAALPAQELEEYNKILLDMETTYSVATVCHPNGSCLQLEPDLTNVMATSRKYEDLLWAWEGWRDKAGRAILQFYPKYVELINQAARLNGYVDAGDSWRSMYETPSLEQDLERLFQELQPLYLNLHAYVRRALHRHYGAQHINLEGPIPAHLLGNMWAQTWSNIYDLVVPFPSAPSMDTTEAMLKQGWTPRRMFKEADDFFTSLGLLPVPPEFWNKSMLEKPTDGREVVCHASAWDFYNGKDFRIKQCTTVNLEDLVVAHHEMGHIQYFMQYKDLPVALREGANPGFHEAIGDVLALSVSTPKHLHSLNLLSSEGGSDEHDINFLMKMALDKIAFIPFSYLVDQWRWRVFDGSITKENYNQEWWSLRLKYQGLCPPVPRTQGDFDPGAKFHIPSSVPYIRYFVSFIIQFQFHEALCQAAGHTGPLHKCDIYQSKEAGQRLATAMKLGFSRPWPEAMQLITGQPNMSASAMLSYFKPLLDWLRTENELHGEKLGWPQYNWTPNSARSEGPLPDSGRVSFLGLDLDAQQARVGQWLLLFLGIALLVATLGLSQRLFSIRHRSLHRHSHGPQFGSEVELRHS

Row | Compound | inhibition at 3 µg/mL [1, 3] [%] | inhibition at 10 µg/mL [1, 4] [%] | inhibition at 30 µg/mL ([1]; Xanthohumol concentration 30 µg/mL) [%] | Relative amount of NO released (%) Average ([2]; Xanthohumol concentration 1 µg/mL) [%] | Relative amount of NO released (%) Average [2, 3] [%] | Relative amount of NO released (%) Average [2, 4] [%] | relative amount of NO released ([2]; Lovastatin 10 µM, average ± standard error) [%]
1 | COc1cc(O)c(CC=C(C)C)c(O)c1C(=O)/C=C/c1ccc(O)cc1 [Xanthohumol] | 3.33 | 15.8 | 19.5 | 108.3 | 124.8 | 147.5 | –
2 | CC[C@H](C)C(=O)O[C@H]1C[C@@H](C)C=C2C=C[C@H](C)[C@H](CC[C@@H]3C[C@@H](O)CC(=O)O3)[C@H]21 [positive control, Lovastatin, reference compound] | – | – | – | – | – | – | 122.8 ± 2.7
